According to ChEMBL document CHEMBL1201862, “PubChem BioAssay data set” (2004):
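The compound was tested at five concentrations on cells cultured in 96-well plates, with a 48-hour exposure period. Here, GI50 denotes the concentration required for 50% inhibition of growth.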 Active and inactive are the calls of the source. No stated cut-off is given here; in the data, active = GI50 up to about 1.1 µM and inactive = higher.

Columns and labels:
Assay in all cases: DTP human tumour cell line panel, 48 h
NCI-H226 = test system: NCI-H226
SW-620 = test system: SW-620
LOX IMVI = test system: LOX IMVI
A549 = test system: A549
SR = test system: SR
NCI-H522 = test system: NCI-H522
U-251 = test system: U-251
786-0 = test system: 786-0
CAKI-1 = test system: CAKI-1
SNB-19 = test system: SNB-19
HOP-62 = test system: HOP-62
SK-MEL-5 = test system: SK-MEL-5
OVCAR-5 = test system: OVCAR-5
OVCAR-3 = test system: OVCAR-3
HCT-15 = test system: HCT-15
OVCAR-4 = test system: OVCAR-4
CCRF-CEM = test system: CCRF-CEM
RXF 393 = test system: RXF 393

COC1CC2C3/C(=N/Nc4ccc([N+](=O)[O-])cc4[N+](=O)[O-])CCC2(C)C3C1 (configuration not stated)
GI50 (NCI-H226): > 10 µM (inactive) | GI50 (SW-620): > 10 µM (inactive) | GI50 (LOX IMVI): > 10 µM (inactive) | GI50 (A549): > 100 µM (inactive) | GI50 (SR): 37.1 µM (inactive) | GI50 (NCI-H522): > 10 µM (inactive) | GI50 (U-251): > 10 µM (inactive) | GI50 (786-0): > 10 µM (inactive) | GI50 (CAKI-1): > 10 µM (inactive) | GI50 (SNB-19): > 10 µM (inactive) | GI50 (HOP-62): > 10 µM (inactive) | GI50 (SK-MEL-5): > 10 µM (inactive) | GI50 (OVCAR-5): > 10 µM (inactive) | GI50 (OVCAR-3): > 10 µM (inactive) | GI50 (HCT-15): > 100 µM | GI50 (OVCAR-4): > 10 µM (inactive)

O=C1c2ccccc2C(=O)N1C/C=C/CO
GI50 (NCI-H226): > 100 µM (inactive) | GI50 (CCRF-CEM): > 100 µM (inactive) | GI50 (SW-620): > 100 µM (inactive) | GI50 (A549): > 100 µM (inactive) | GI50 (SR): > 100 µM (inactive) | GI50 (RXF 393): > 100 µM (inactive) | GI50 (NCI-H522): 98.2 µM (inactive) | GI50 (U-251): > 100 µM (inactive) | GI50 (786-0): > 100 µM (inactive) | GI50 (CAKI-1): > 100 µM (inactive) | GI50 (SNB-19): > 100 µM (inactive) | GI50 (HOP-62): > 100 µM (inactive) | GI50 (SK-MEL-5): > 100 µM (inactive) | GI50 (OVCAR-3): > 100 µM (inactive) | GI50 (HCT-15): > 100 µM | GI50 (OVCAR-4): > 100 µM (inactive)

COC1OC2COC(c3ccccc3)OC2C(O)C1Br (configuration not stated)
GI50 (CCRF-CEM): > 100 µM (inactive) | GI50 (SW-620): > 100 µM (inactive) | GI50 (LOX IMVI): > 100 µM (inactive) | GI50 (A549): > 100 µM (inactive) | GI50 (SR): > 100 µM (inactive) | GI50 (RXF 393): > 100 µM (inactive) | GI50 (NCI-H522): > 100 µM (inactive) | GI50 (U-251): > 100 µM (inactive) | GI50 (786-0): > 100 µM (inactive) | GI50 (CAKI-1): > 100 µM (inactive) | GI50 (SNB-19): > 100 µM (inactive) | GI50 (HOP-62): > 100 µM (inactive) | GI50 (SK-MEL-5): > 100 µM (inactive) | GI50 (OVCAR-5): > 100 µM (inactive) | GI50 (OVCAR-3): > 100 µM (inactive) | GI50 (HCT-15): > 100 µM | GI50 (OVCAR-4): > 100 µM (inactive)

O=S(=O)(O)C(F)(F)C(F)(F)C(F)(F)C(F)(F)F
GI50 (CCRF-CEM): > 100 µM (inactive) | GI50 (SW-620): > 100 µM (inactive) | GI50 (LOX IMVI): > 100 µM (inactive) | GI50 (A549): > 100 µM (inactive) | GI50 (RXF 393): > 100 µM (inactive) | GI50 (U-251): > 100 µM (inactive) | GI50 (786-0): > 100 µM (inactive) | GI50 (CAKI-1): > 100 µM (inactive) | GI50 (SNB-19): > 100 µM (inactive) | GI50 (HOP-62): > 100 µM (inactive) | GI50 (SK-MEL-5): > 100 µM (inactive) | GI50 (OVCAR-5): > 100 µM (inactive) | GI50 (OVCAR-3): > 100 µM (inactive) | GI50 (HCT-15): > 100 µM | GI50 (OVCAR-4): > 100 µM (inactive)

C1=CC=C2NCCC/N=C3/C=CC=CC=C3NCCC/N=C\2C=C1
GI50 (NCI-H226): > 100 µM (inactive) | GI50 (CCRF-CEM): > 100 µM (inactive) | GI50 (SW-620): > 100 µM (inactive) | GI50 (LOX IMVI): > 100 µM (inactive) | GI50 (A549): > 100 µM (inactive) | GI50 (U-251): > 100 µM (inactive) | GI50 (786-0): > 100 µM (inactive) | GI50 (SNB-19): > 100 µM (inactive) | GI50 (HOP-62): > 100 µM (inactive) | GI50 (SK-MEL-5): > 100 µM (inactive) | GI50 (OVCAR-5): > 100 µM (inactive) | GI50 (OVCAR-3): > 100 µM (inactive) | GI50 (HCT-15): > 100 µM | GI50 (OVCAR-4): > 100 µM (inactive)

CCOC(OC1=CCCC1)C(C)[Se]c1ccccc1 (configuration not stated)
GI50 (NCI-H226): 36.1 µM (inactive) | GI50 (CCRF-CEM): 15.2 µM (inactive) | GI50 (LOX IMVI): 14.7 µM (inactive) | GI50 (A549): 34.8 µM (inactive) | GI50 (SR): 14.2 µM (inactive) | GI50 (RXF 393): 32.9 µM (inactive) | GI50 (NCI-H522): 17.9 µM (inactive) | GI50 (U-251): 16.3 µM (inactive) | GI50 (786-0): 19.1 µM (inactive) | GI50 (CAKI-1): 65.8 µM (inactive) | GI50 (SNB-19): > 100 µM (inactive) | GI50 (HOP-62): > 100 µM (inactive) | GI50 (SK-MEL-5): 18.3 µM (inactive) | GI50 (OVCAR-5): 28.9 µM (inactive) | GI50 (OVCAR-3): 34.5 µM (inactive) | GI50 (HCT-15): 16.8 µM | GI50 (OVCAR-4): 44.2 µM (inactive)

O=C1CC2Sc3ccccc3N=C2N1c1ccc(Cl)cc1Cl (configuration not stated)
GI50 (NCI-H226): > 100 µM (inactive) | GI50 (CCRF-CEM): 17.1 µM (inactive) | GI50 (SW-620): 46.2 µM (inactive) | GI50 (LOX IMVI): 40.7 µM (inactive) | GI50 (A549): 83.4 µM (inactive) | GI50 (RXF 393): 93.5 µM (inactive) | GI50 (U-251): 32.2 µM (inactive) | GI50 (786-0): 30.3 µM (inactive) | GI50 (SNB-19): 77.8 µM (inactive) | GI50 (HOP-62): > 100 µM (inactive) | GI50 (SK-MEL-5): 81.5 µM (inactive) | GI50 (OVCAR-5): > 100 µM (inactive) | GI50 (OVCAR-3): > 100 µM (inactive) | GI50 (OVCAR-4): > 100 µM (inactive)

COc1ccc2c3c([nH]c2c1[N+](=O)[O-])C(C)N(Cc1ccc([N+](=O)[O-])cc1)CC3 (configuration not stated)
GI50 (NCI-H226): 18.1 µM (inactive) | GI50 (CCRF-CEM): 6.76 µM (inactive) | GI50 (SW-620): 15.1 µM (inactive) | GI50 (LOX IMVI): 4.74 µM (inactive) | GI50 (A549): > 100 µM (inactive) | GI50 (SR): 5.5 µM (inactive) | GI50 (RXF 393): 10.9 µM (inactive) | GI50 (NCI-H522): 3.96 µM (inactive) | GI50 (U-251): 15.7 µM (inactive) | GI50 (786-0): > 100 µM (inactive) | GI50 (CAKI-1): 3.89 µM (inactive) | GI50 (SNB-19): 19.3 µM (inactive) | GI50 (HOP-62): > 10 µM (inactive) | GI50 (OVCAR-5): 31.6 µM (inactive) | GI50 (OVCAR-3): 14 µM (inactive) | GI50 (HCT-15): 15.6 µM | GI50 (OVCAR-4): 2.16 µM (inactive)

C/C(=C1/CCC/C(=C(/C)c2ccccc2)C1=O)c1ccccc1
GI50 (NCI-H226): 17.4 µM (inactive) | GI50 (CCRF-CEM): 22.2 µM (inactive) | GI50 (SW-620): 80 µM (inactive) | GI50 (LOX IMVI): 28.8 µM (inactive) | GI50 (A549): 31.8 µM (inactive) | GI50 (SR): 14.6 µM (inactive) | GI50 (RXF 393): 17.6 µM (inactive) | GI50 (NCI-H522): 33.6 µM (inactive) | GI50 (U-251): 25.3 µM (inactive) | GI50 (786-0): 44.4 µM (inactive) | GI50 (SNB-19): > 100 µM (inactive) | GI50 (SK-MEL-5): 22.8 µM (inactive) | GI50 (OVCAR-5): 27.2 µM (inactive) | GI50 (OVCAR-3): 64.4 µM (inactive) | GI50 (HCT-15): 31.6 µM | GI50 (OVCAR-4): 46.3 µM (inactive)
